According to paper PMC10387993, “New pyrimidine-N-β-D-glucosides: synthesis, biological evaluation, and molecular docking investigations” (Turkish Journal of Chemistry, 2023):

Key:
BSA = BSA (Bos taurus, UniProt P02769); test: BSA binding study, UV-Visible absorption; details: UV-Vis, 25 μM compound, BSA 6.5–800 μM
Source text: The vast majority of anticancer agents used in pharmaceutical chemistry act on functional macromolecules such as DNA and proteins. Given this well-known fact, the relationship between newly developed anticancer drug candidates and macromolecules should be studied in detail. The interaction of molecules with DNA leads to significant changes in the helical structure of DNA, which can be observed by spectrophotometric techniques. […] Also, the red or blue shift in the absorption bands of the compounds can be an indication of the stability of the compound and the DNA structure. The DNA/BSA binding properties of the new chemicals synthesized by our group were determined using a UV-Vis spectrophotometer. The interactions of these compounds with DNA were as follows. In the spectra obtained by UV-Vis studies of the compounds, a single maximum absorption peak was observed and this peak had no clear bathochromic or hypsochromic effect. […]. […] The physical interactions of our newly synthesized compounds with BSA caused the formation of the spectral bands described below. […]. […]. Kb is the binding constant related to the complex to DNA and can be calculated algebraically from the slope of the line drawn between [DNA] / (ɛa-ɛf) and [DNA]. […].
To find the interaction of the compounds with calf thymus DNA and to calculate the binding constants (Kb) UV–Visible absorption spectroscopy technique was used. A 2.5-mg calf thymus DNA was dissolved in 10.0 mL Tris–HCl buffer (20 mM Tris–HCl, 20 mM NaCl, pH 7.0) and stabile during one week in the refrigerator. […]. After dissolving the calf thymus DNA fibers in Tris–HCl buffer, the purity of this solution was checked from the absorbance ratio A260/A280. […]. These compounds were diluted with Tris–HCl buffer to obtain 25 μM concentrations. Test compounds in the solutions were incubated at room temperature for nearly 30 min before the process. The UV-visible spectral studies were performed in mixed solvent system (1/9 DMSO/Tris–HCl buffer) using eight points that the fine structure is observed for these compounds in this system by UV-visible absorption. […]. Absorption spectra were recorded by using 1-cm-path quartz cuvettes at room temperature. To evaluate the interaction of the compounds with BSA, UV–Visible absorption spectroscopy technique was also used. A 2.5 mg BSA was dissolved in 10.0 mL of Tris–HCl buffer (5 mM Tris–HCl, 10 mM NaCl at pH 7.4) and stored in the refrigerator. […]

calf thymus DNA (CT-DNA) = test: DNA binding study, UV-Visible absorption titration; details: UV-Vis titration, 25 μM compound
Source text: The vast majority of anticancer agents used in pharmaceutical chemistry act on functional macromolecules such as DNA and proteins. Given this well-known fact, the relationship between newly developed anticancer drug candidates and macromolecules should be studied in detail. The interaction of molecules with DNA leads to significant changes in the helical structure of DNA, which can be observed by spectrophotometric techniques. […] Also, the red or blue shift in the absorption bands of the compounds can be an indication of the stability of the compound and the DNA structure. The DNA/BSA binding properties of the new chemicals synthesized by our group were determined using a UV-Vis spectrophotometer. The interactions of these compounds with DNA were as follows. […] Kb is the binding constant related to the complex to DNA and can be calculated algebraically from the slope of the line drawn between [DNA] / (ɛa-ɛf) and [DNA]. […]
To find the interaction of the compounds with calf thymus DNA and to calculate the binding constants (Kb) UV–Visible absorption spectroscopy technique was used. […] After dissolving the calf thymus DNA fibers in Tris–HCl buffer, the purity of this solution was checked from the absorbance ratio A260/A280. […] Absorption spectra were recorded by using 1-cm-path quartz cuvettes at room temperature. […]

Chain of BSA (P02769 25-607): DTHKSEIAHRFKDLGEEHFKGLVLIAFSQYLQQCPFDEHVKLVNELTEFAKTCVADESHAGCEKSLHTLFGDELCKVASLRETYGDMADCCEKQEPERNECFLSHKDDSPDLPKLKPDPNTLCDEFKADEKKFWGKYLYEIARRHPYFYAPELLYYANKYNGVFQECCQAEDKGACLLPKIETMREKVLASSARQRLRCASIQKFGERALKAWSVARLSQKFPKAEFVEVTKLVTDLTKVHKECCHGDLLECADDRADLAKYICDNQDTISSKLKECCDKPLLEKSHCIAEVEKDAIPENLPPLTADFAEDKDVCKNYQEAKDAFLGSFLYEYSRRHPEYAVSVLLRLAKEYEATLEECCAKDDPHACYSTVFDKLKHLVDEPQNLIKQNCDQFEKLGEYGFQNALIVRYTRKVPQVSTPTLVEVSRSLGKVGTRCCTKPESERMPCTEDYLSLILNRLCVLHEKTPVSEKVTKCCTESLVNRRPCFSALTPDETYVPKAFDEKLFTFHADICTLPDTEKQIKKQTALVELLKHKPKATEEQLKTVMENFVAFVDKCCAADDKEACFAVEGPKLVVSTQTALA

Row | change of absorption on adding increasing amounts of BSA (BSA) | Structure (SMILES) | binding constant (Kb) (calf thymus DNA (CT-DNA))
1 | hyperchromic activity | Cc1cccc(-c2cc(-c3ccncc3)nc(N[C@@H]3O[C@H](CO)[C@@H](O)[C@H](O)[C@H]3O)n2)c1 [Compound 6, N-[4-(3-methylphenyl)-6-pyridin-4-ylpyrimidin-2-yl]-β-D-glucopyranosylamine] | –
2 | hyperchromic activity | Cc1ccc(-c2cc(-c3ccncc3)nc(N[C@@H]3O[C@H](CO)[C@@H](O)[C@H](O)[C@H]3O)n2)cc1 [Compound 9, N-[4-(4-methylphenyl)-6-pyridin-4-ylpyrimidin-2-yl]-β-D-glucopyranosylamine] | –

The remaining lines, values behind:

Row | Structure (SMILES) | change of absorption on adding increasing amounts of BSA (BSA) | binding constant (Kb) (calf thymus DNA (CT-DNA))
3 | Cc1cccc(-c2cc(-c3ccccn3)nc(N[C@@H]3O[C@H](CO)[C@@H](O)[C@H](O)[C@H]3O)n2)c1 [Compound 4, N-[4-(3-methylphenyl)-6-pyridin-2-ylpyrimidin-2-yl]-β-D-glucopyranosylamine] | hyperchromic activity | –
4 | Cc1ccccc1-c1cc(-c2ccccn2)nc(N[C@@H]2O[C@H](CO)[C@@H](O)[C@H](O)[C@H]2O)n1 [Compound 1, N-[4-(2-methylphenyl)-6-pyridin-2-ylpyrimidin-2-yl]-β-D-glucopyranosylamine] | – | greater interest in DNA than the anticancer drugs cisplatin and 5FU
5 | CC(=O)OC[C@H]1O[C@@H](Nc2nc(-c3ccc(C)cc3)cc(-c3ccccn3)n2)[C@H](OC(C)=O)[C@@H](OC(C)=O)[C@@H]1OC(C)=O [Compound 16, 2,3,4,6-tetra-O-acetyl-N-[4-(4-methylphenyl)-6-pyridin-2-ylpyrimidin-2-yl]-β-D-glucopyranosylamine] | hypochromically | –
